From patent publication US20040014738A1 (priority 2000, published 2004)

How the values were obtained:
[1] = test system: CD34-positive cells (stem cells); test: Viability of the stem cells after photodynamic treatment; assay type: cell-based; conditions: 25 μM sensitizer, illumination 1 hour, vs control (no illumination, no sensitizer) (FIG. 2)
Method: (§1) The following parameters were measured:
Viability of the stem cells.

[2] = test system: stem cells from umbilical cord blood
Method: Stem cells were isolated from fresh umbilical cord blood using hydroxy ethylstarch (HES) sedimentation (Perutelli P. et al, Vox Sang. 76(4) pp 237-40 (1999); Adorno G. et al, Clin. Lab. Haematol. 20(6) pp 341-3 (1998)). The resulting solution contained 20*10^6 cells/ml, as determined using an automatic cell counter (Sysmex K1000, TOA Medical Electronics, Kobe, Japan).
Stock solutions of Pseudomonas aeruginosa were added to the stem cell solution such that the volume of the spike was <10% of the total volume of the solution, and the number of bacteria was about 10^5/ml. A sensitizer, monophenyl-tri(N-methyl-4-pyridyl)porphyrin chloride (TriP(4), Mid-Century, Posen, Ill. USA), was added to a final concentration of 25 μM. The suspension were thoroughly mixed and divided into 3-ml aliquots in polystyrene culture dishes with a diameter of 6 cm (Greiner, Alphen a/d Rijn, the Netherlands), and agitated at room temperature on a horizontal reciprocal shaker (60 cycles/min, GFL, Burgwedel, Germany) for 5 min. in the dark. […] The irradiance at the cell layer was 35 mW/cm^2, as measured with an IL1400A photometer equipped with a SEL033 detector (International Light, Newburyport, Mass. USA). The following parameters were measured:
Influence of the treatment on stem cell differentiation (as measured by cfu-e, bfu-e, cfu-m, cfu-gm, and cfu-gem). […]

Pseudomonas aeruginosa = test: Photodynamic inactivation of Pseudomonas aeruginosa in stem cell-containing solution; assay type: cell-based; conditions: 25 μM sensitizer, light >600 nm, 35 mW/cm^2, about 10^5 bacteria/ml in stem cell solution (FIG. 1)
Method: Photodynamic Treatment of Stem Cell-Containing Solution Contaminated with Pseudomonas
as §1
Inactivation of P. aeruginosa; and […]

C[n+]1ccc(-c2c3nc(c(-c4cc[n+](C)cc4)c4ccc([nH]4)c(-c4cc[n+](C)cc4)c4nc(c(-c5ccccc5)c5ccc2[nH]5)C=C4)C=C3)cc1.[Cl-].[Cl-].[Cl-] [TriP(4), monophenyl-tri(N-methyl-4-pyridyl)porphyrin chloride]
viability of CD34-positive cells (stem cells) [1]: remains within the error margin for the control experiment | CFU-Mk, PDT (60′) [2]: 38 | Inactivation of P. aeruginosa (Pseudomonas aeruginosa): effectively killed
